In brackets after ≈: the same amount, converted by molar mass. Read-outs that look alike come from different tables or passages of the source.
Legend:
[1] = In vitro cytotoxicity assay in L-6 cells (Alamar Blue); settings: rat
Description: (§1) VI. Design and Results of the in vitro & in vivo Studies.
A. Drug inhibition of in vitro cultured P. falciparum parasite:[2] […]
B. In vitro cytotoxicity assay: [2] Assays were performed in 96-well microtiter plates, each well containing 100 µl of RPMI 1640 medium supplemented with 1% L-glutamine (200mM) and 10% fetal bovine serum, and 4 x 10^4 L-6 cells (a primary cell line derived from rat skeletal myoblasts).
Serial drug dilutions of seven 3-fold dilution steps covering a range from 90 to 0.123 µg/mL were prepared. After 72 h of incubation the plates were inspected under an inverted microscope to assure growth of the controls and sterile conditions. 10µL of Alamar Blue was then added to each well and the plates incubated for another 2 h. Then the plates were read with a Spectramax Gemini XS microplatefluorometer (Molecular Devices Cooperation, Sunnyvale, CA, USA) using an excitation wave length of 536 nm and an emission wave length of 588 nm. Data were analysed using the microplate reader software Softmax Pro (Molecular Devices Cooperation, Sunnyvale, CA, USA).

P. falciparum K1 = experiment: In vitro activity against erythrocytic stages of P. falciparum, 3H-hypoxanthine incorporation assay; type: cell-based; settings: Plasmodium falciparum
Description: as §1
A. Drug inhibition of in vitro cultured P. falciparum parasite:[2] All in vitro assays were carried out twice independently in duplicate.In vitro activity against theerythrocytic stages of P. falciparum was determined by using a 3H-hypoxanthine incorporation assay, using the chloroquine and pyrimethamine resistant K1 strain and the standard drugs chloroquine (Sigma C6628) and artemisinin (Arteannuin, Qinghaosu; Sigma 36,159- 3). Compounds were dissolved in DMSO at 10 mg/mL and added to parasite cultures incubated in RPMI 1640 medium without hypoxanthine, supplemented with HEPES (5.94 g/L), NaHCO3 (2.1 g/L), neomycin (100U/mL), AlbumaxR (5 g/L), and washed human red cells A+ at 2.5% haematocrit (0.3% parasitaemia). Serial doubling dilutions of each drug were prepared in 96-well microtiter plates and incubated in a humidified atmosphere at 37 °C; 4% CO 2, 3% O2, 93% N2. After 48 h, 50 µLof 3H-hypoxanthine (= 0.5 µCi) was added to each well of the plate. The plates were incubated for an additional 24 h under the same conditions. The plates were then harvested with a Betaplate cell harvester (Wallac, Zurich, Switzerland), and the red blood cells were transferred onto a glass fiber filter and then washed with distilled water. The dried filters were inserted into a plastic foil with 10 mL of scintillation fluid and were counted in a Betaplate™ liquid scintillation counter (Wallac, Zurich, Switzerland); IC50values were calculated from sigmoidal inhibition curves using Microsoft Excel. […]

[2] = Aqueous solubility estimation by nephelometry; type: physicochemical; settings: 1% DMSO
Description: (§2) IV. Physicochemical Evaluation […]
Solubility Estimation: Aqueous solubility was estimated by nephelometry. A concentrated
stock solution prepared in DMSO was spiked into either pH 6.5 phosphate buffer or 0.01 N HCl
(approx. pH 2.0) with the final DMSO concentration being 1%. Samples were then analyzed by
Nephelometry to determine the solubility range as described previously.[9] […]

[3] = Chromatographic LogD estimation (gLogD); type: physicochemical; settings: chromatographic gLogD technique, pH 7.4
Description: as §2
Chromatographic Log D Estimation: The partition coefficient (gLogDpH 7.4) of 20 was estimated by correlation of its chromatographic retention properties with the retention characteristics of a series of standard compounds with known partition coefficient values. Data were collected using a Waters 2785 HPLC with a Waters 2487 dual channel UV detector with a Phenomenex Synergi Hydro-RP 4 µm (30 mm x 2 mm) column. The mobile phase was aqueous buffer (50 mM ammonium acetate, pH 7.4) and acetonitrile with an acetonitrile gradient of 0-100% over 10 min. Compound elution was monitored at 220 and 254 nm. […]

[4] = Metabolic stability, NADPH-dependent degradation in human liver microsomes; type: in vitro ADME
Description: (§3) Compound 20 (1 µM) was incubated at 37 ° C with human or mouse liver microsomes (BD Gentest, Discovery Labware Inc., Woburn, MA). The reaction was initiated by the addition of an NADPH-regenerating system containing 1 mg/mL NADP, 1 mg/mL glucose-6-phosphate, 1 U/mL glucose-6-phosphate dehydrogenase, and 0.67 mg/mL MgCl2and quenched at various time points over the incubation period (60 min) by the addition of ice cold acetonitrile. Samples were also incubated in the absence of co-factor to monitor for non-specific degradation. The relative loss of parent compound and formation of metabolic products were monitored by LC/MS using a Waters/Micromass LCT instrument.
(§4) Compound concentration versus time data were fitted to an exponential decay function to determine the first-order rate constant for substrate depletion which was used to obtain the in vitro intrinsic clearance (in vitro CLint), and then scaled to predict the human intrinsic clearance (scaling parameters included liver mass of 25.7 g liver/kg body weight for human and 87.5 g liver/kg body weight for mouse and microsomal protein content of 45 mg microsomal protein/g liver mass for […]
(§5) both species)[10]. […]

[5] = Metabolic stability, NADPH-dependent degradation in mouse liver microsomes; type: in vitro ADME
Description: as §3, §4, §5

P. berghei ANKA GFP = experiment: In vivo antimalarial efficacy, P. berghei mouse model (4 days treatment); set-up: species or system Plasmodium berghei; settings: 10 mg/kg/day × 4, ip, NMRI mice
Description: C. In vivo antimalarial efficacy studies (4 days treatment).[2]
In vivo antimalarial activity was assessed basically as previously described. Groups of three female […]
GFP-transfected P. berghei strain ANKA. .Unless otherwise indicated compounds were formulated in 100% DMSO, diluted 10-fold in distilled water and administered intraperitoneally in a volume of 10 mL kg-1 on four consecutive days (4, 24, 48 and 72 h post infection). Parasitemia was determined on day 4 post infection (24 h after last treatment) by FACS analysis. Activity was calculated as the difference between the mean per cent parasitaemia for the control (n=5 mice) and treated groups expressed as a per cent relative to the control group. The survival time in days was also recorded up to 30 days after infection. A compound was considered curative if the animal survived to day 30 after infection with no detectable parasites. In vivo efficacy studies in mice were conducted at the Swiss Tropical and Public Health Institute (Basel) according to the rules and regulations for the protection of animal rights ("Tierschutzverordnung") of the Swiss "BundesamtfürVeterinärwesen". They were approved by the veterinary office of Canton Basel-

P. falciparum = tested on: P. falciparum; set-up: method as in PMID 23918316, PMID 23517371; settings: cited from earlier work
[6] = L-6 cells (rat skeletal myoblasts)
[7] = K1 strain (chloroquine and pyrimethamine resistant), means of two independent assays, read-out: P. falc. EC50

Cc1cc(/C=C2\SC(=O)N(C)C2=O)c(C)n1-c1ccccc1 [Compound 45]
melting point: 195 to 196 °C | EC50 at 72 h [1, 6]: > 290 µM | EC50 (P. falciparum K1; [7]): 2.2 µM

Cc1cc(/C=C2\S/C(=N\c3ccccc3)N(C3CCCCC3)C2=O)c(C)n1C [Compound 31]
melting point: 184 to 185 °C | EC50 at 72 h [1, 6]: > 230 µM | EC50 (P. falciparum K1; [7]): 1.9 µM

Cc1cc(/C=C2/SC(=O)NC2=O)c(C)n1-c1ccccc1C(F)(F)F [Compound 46]
melting point: 205 to 210 °C | EC50 at 72 h [1, 6]: 43 µM | EC50 (P. falciparum K1; [7]): 8.4 µM

O=C1/C(=C/c2ccn(-c3ccccc3C(F)(F)F)c2)S/C(=N\c2ccccc2)N1C1CCCCC1 [Compound 28]
melting point: 145 to 147 °C | EC50 at 72 h [1, 6]: > 180 µM | EC50 (P. falciparum K1; [7]): 2.3 µM

C/N=C1\S/C(=C\c2ccn(Cc3ccccc3)c2)C(=O)N1C [Compound 42]
melting point: 128 to 130 °C | EC50 at 72 h [1, 6]: > 290 µM | EC50 (P. falciparum K1; [7]): 9.5 µM

Cc1cc(/C=C2\S/C(=N\c3ccccc3)N(C3CCCCC3)C2=O)c(C)n1-c1ccc(Br)cc1 [Compound 21, (2Z,5Z)-3-Cyclohexyl-5-((1-(4-bromophenyl)-2,5-dimethyl-1H-pyrrol-3-yl)methylene)-2-(phenylimino)thiazolidin-4-one]
melting point: 243 to 244 °C | EC50 at 72 h [1, 6]: > 170 µM | EC50 (P. falciparum K1; [7]): 0.42 µM

Cc1cc(/C=C2\S/C(=N\c3ccccc3)N(C3CCCCC3)C2=O)c(C)n1-c1ccc(F)cc1 [Compound 20, (2Z, 5Z)-3-Cyclohexyl-5-((1-(4-fluorophenyl)-2,5-dimethyl-1H-pyrrol-3-yl)methylene)-2-(phenylimino)thiazolidin-4-one]
EC50 at 72 h [1, 6]: > 190 µM | EC50 (P. falciparum K1; [7]): 2 µM | Solubility pH 2.0 ([2]; pH 2.0 (0.01 N HCl)): poor aqueous solubility | solubility ([2]; pH 2.0 (0.01 N HCl), read-out: Solubility pH 2.0): < 0.8 µg/mL | Solubility pH 6.5 ([2]; pH 6.5 phosphate buffer): poor aqueous solubility | solubility ([2]; pH 6.5 phosphate buffer, read-out: Solubility pH 6.5): 0.8 to 1.6 µg/mL (≈ 1.69 to 3.38 µM) | chromatographic logD [3]: 7.1 | Metabolites detected ([4]; human liver microsomes, LC/MS): no obvious metabolites were detected and None | Microsome predicted hepatic extraction ratio EH ([4]; human, well-stirred model): 0.67 | NADPH-dependent degradation ([4]; incubation with human liver microsomes): rapid NADPH-dependent degradation | CLint scaled at 1 µM ([4]; liver microsomes, human, scaled from in vitro CLint, read-out: Microsome predicted in vivo CLint): 42 mL/min/kg | NADPH-dependent degradation ([5]; incubation with mouse liver microsomes): rapid NADPH-dependent degradation | CLint scaled at 1 µM ([5]; liver microsomes, mouse, scaled from in vitro CLint, read-out: Microsome predicted in vivo CLint): 216 mL/min/kg | In vitro CLint ([5]; mouse liver microsomes, 1 µM, 37 °C, NADPH): 0.055 ml/min/mg Protein | Metabolites detected ([5]; mouse liver microsomes, LC/MS): no obvious metabolites were detected and None | Microsome predicted hepatic extraction ratio EH ([5]; mouse, well-stirred model): 0.71

Cc1cc(/C=C2/SC(=S)NC2=O)c(C)n1-c1ccccc1C(F)(F)F [Compound 48]
melting point: 255 to 258 °C | EC50 at 72 h [1, 6]: 9 µM | EC50 (P. falciparum K1; [7]): 21 µM

CCN(CC)CCCC(C)Nc1ccnc2cc(Cl)ccc12 (stereo not drawn) [chloroquine]
EC50 (P. falciparum K1; K1, read-out: EC50, control for P. falciparum K1): 0.1 µg/mL | % Reduction parasitaemia P. berghei ANKA GFP (P. berghei ANKA GFP): 99.97% | Survival (P. berghei ANKA GFP; control 7 days): 20 days

Cc1cc(/C=C2/SC(=N)NC2=O)c(C)n1-c1ccccc1C(F)(F)F [Compound 47]
melting point: 285 to 290 °C | EC50 at 72 h [1, 6]: 56 µM | EC50 (P. falciparum K1; [7]): 5.8 µM

CCOC(=O)C1=C(C)N/C(=C/c2cc(C)n(-c3ccccc3C(F)(F)F)c2C)C1=O [TDR32750]
selectivity compared to L6 mammalian cells (P. falciparum; L6 vs P. falciparum): > 2000 fold | EC50 (P. falciparum; read-out: EC50 against P. falciparum): 0.009 µM

Cc1cc(/C=C2\NC(=O)NC2=O)c(C)n1-c1ccccc1C(F)(F)F [Compound 49]
melting point: 265 to 267 °C | EC50 at 72 h [1, 6]: 84 µM | EC50 (P. falciparum K1; [7]): 13 µM

Cc1cc(/C=C2\SC(=O)NC2=O)c(C)n1-c1ccccc1C(F)(F)F [Compound 44]
melting point: 234 to 235 °C | EC50 at 72 h [1, 6]: 64 µM | EC50 (P. falciparum K1; [7]): 1.9 µM

O=C1/C(=C/c2ccn(Cc3ccccc3)c2)S/C(=N\c2ccccc2)N1C1CCCCC1 [Compound 29]
melting point: 68 to 70 °C | EC50 at 72 h [1, 6]: > 200 µM | EC50 (P. falciparum K1; [7]): 1.6 µM

Cc1cc(C=C2C(=O)NC(=S)NC2=O)c(C)n1-c1ccccc1C(F)(F)F [Compound 52]
melting point: > 300 °C | EC50 at 72 h [1]: 16 µM | EC50 (P. falciparum K1; K1, read-out: P. falc. EC50): 29 µM

Cc1cc(/C=C2\S/C(=N\c3ccccc3)N(C3CCCCC3)C2=O)c(C)n1-c1ccccc1C(F)(F)F [Compound 25]
melting point: 125 to 127 °C | EC50 at 72 h [1, 6]: > 170 µM | EC50 (P. falciparum K1; [7]): 0.78 µM

CN1C(=O)/C(=C/c2ccn(Cc3ccccc3)c2)S/C1=N\c1ccccc1 [Compound 37]
melting point: 155 to 156 °C | EC50 at 72 h [1, 6]: > 240 µM | EC50 (P. falciparum K1; [7]): 3.9 µM
